Laboratory results as given in US20230150951A1, “2,5- OR 2,6-DISUBSTITUTED HYDROQUINONE DERIVATIVES WITH AT LEAST ONE CARBOXY, SULFO OR AMIDO GROUP USEFUL AS MEDICAMENTS” (OM PHARMA SA, priority 2020, published 2023).
Where two headings read alike, the source gives them in different places.

Columns and labels:
Format in all cases: cell-based
TNF-beta = assay: Cytokine release after LPS induction on human whole blood: TNFβ
Experimental: (§1) Aim of this in vitro method is to assess compounds effects on release of a panel of cytokines from whole blood following lipopolysaccharide (LPS) induced inflammatory reaction. Whole blood was incubated with compounds for 1 h prior to LPS induction. Cytokine levels in blood were measured using a multiplex FACS-based panel.
(§2) IC50 values determined for the tested compounds expressed in microM [μM] and the values for the inhibition of cytokines were listed for each compound.
(§3) Effect on cytokines release after LPS induction was performed on the compounds dissolved in DMSO or H2O to reach 10-fold concentrated stock solutions and dissolved in culture media.
(§4) Test system: Whole blood was removed from a single donor (into lithium heparin coated tubes; BD Vacutainer; 367886) and diluted 1:5 with RPMI 1640 (Thermo Fisher, 61870036). Within 30 minutes of sampling, blood was incubated with compounds for 1 h prior to LPS stimulation (O111:B4—Sigma L4391; 10 ng/ml final concentration). Stimulation continued under standard cell culture conditions (37° C. with 5% CO2) overnight (18 h), after which plates were centrifuged and supernatant removed and frozen at −80° C. until used for analyses.
(§5) Dilution of test compounds: 10×concentrated solutions (concerning to the final assay concentrations) of each test compound were prepared with the appropriate solvent (in DMSO or in water). These 10× compound solutions (10 μl) were then added to 90 μl pre-diluted whole blood (whole blood: RPMI1640, 1:5) resulting in the final assay concentration.
(§6) Test method: Diluted whole blood (80 μl) was pre-incubated with compounds (10 μl) to give final assay concentrations of 100, 30, 10, 3, 1, 0.3 and 0.1×10^−6M. Blood was incubated at 37° C. with 5% CO2 for 1 h. LPS was diluted in cell culture media to a concentration of […]; 10 μl was added to the whole blood to give a final concentration of 10 ng/ml. Plates were incubated at 37° C. for 18 h. Plates were centrifuged at 3,000 RPM for 5 minutes at 4° C. and supernatant removed and frozen at −80° C. until FACS analysis was carried out.
(§7) Cytokine release was measured using a custom multiplex system (ELISA Genie) according to manufacturers instructions. Prepared samples were run on an Attune NxT flow cytometer (Thermo Fisher).
(§8) Quantification of cytokine release inhibition: known concentration standards were run as part of the cytokine panel to allow quantification of each cytokine concentration in each sample. This was carried out using FCAP Array v3.0 software.
(§9) Results: The dose response relationship on cytokine release following LPS induction of inflammatory response in whole blood was assessed for all compounds. IC50 values were determined for each compound for a panel of cytokines (GM-CSF, IFN-gamma, IL-1beta, IL-2, IL-4, IL-5, IL-6, IL-8, IL-9, IL-10, IL-12p40, IL-13, IL-17A, IL-17F, IL-18, IL-21, IL-22, IL-33, TGF-beta, TNF-alpha, TNF-beta).

IL-12p70 = assay: Cytokine release after LPS induction on human whole blood: IL-12p70
IL-13 = assay: Cytokine release after LPS induction on human whole blood: IL-13
Experimental: as §1, §2, §3, §4, §5, §6, §7, §8, §9

IL-33 = assay: Cytokine release after LPS induction on human whole blood: IL-33
Experimental: as §1, §2, §3, §4, §5, §6, §7, §8, §9

Human neutrophils = assay: Neutrophil adhesion under static conditions; conditions: fMLP-stimulated adhesion to fibrinogen; method: 40 μM and 80 μM, concentration of the value not stated
Summary of the method: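 Donor buffy-coat neutrophils (3×10^6/ml, PBS with Ca/Mg, 10% FCS, pH 7.2) preincubated 30 min at 37° C with 40 μM or 80 μM compound, then stimulated 1 min at 37° C with 1 nM fMLP on fibrinogen-coated glass. Adherent cells fixed and counted by computer; mean ± SD, unpaired t-test.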

IL-2 = assay: Cytokine release after LPS induction on human whole blood: IL-2
Experimental: as §1, §2, §3, §4, §5, §6, §7, §8, §9

IL-5 = assay: Cytokine release after LPS induction on human whole blood: IL-5
Experimental: as §1, §2, §3, §4, §5, §6, §7, §8, §9

IL-6 = assay: Cytokine release after LPS induction on human whole blood: IL-6
Experimental: as §1, §2, §3, §4, §5, §6, §7, §8, §9

IL-17F = assay: Cytokine release after LPS induction on human whole blood: IL-17F
Experimental: as §1, §2, §3, §4, §5, §6, §7, §8, §9

IL-4 = assay: Cytokine release after LPS induction on human whole blood: IL-4
Experimental: as §1, §2, §3, §4, §5, §6, §7, §8, §9

[1] = Homo sapiens, LPS 10 ng/ml, 18 h, read-out: Whole Blood: TNF β IC50
[2] = Homo sapiens, LPS 10 ng/ml, 18 h, read-out: Whole Blood: IL-12p70 IC50
[3] = Homo sapiens, LPS 10 ng/ml, 18 h, read-out: Whole Blood: IL-13 IC50
[4] = Homo sapiens, LPS 10 ng/ml, 18 h, read-out: Whole Blood: IL-33 IC50
[5] = Homo sapiens, LPS 10 ng/ml, 18 h, read-out: Whole Blood: IL-2 IC50
[6] = Homo sapiens, LPS 10 ng/ml, 18 h, read-out: Whole Blood: IL-5 IC50
[7] = Homo sapiens, LPS 10 ng/ml, 18 h, read-out: Whole Blood: IL-6 IC50
[8] = Homo sapiens, LPS 10 ng/ml, 18 h, read-out: Whole Blood: IL-17F IC50
[9] = Homo sapiens, LPS 10 ng/ml, 18 h, read-out: Whole Blood: IL-4 IC50
[10] = human whole blood, inhibition of LPS induced inflammation, read-out: IC50 β
[11] = human whole blood, inhibition of LPS induced inflammation, read-out: IC50 IL-12p70
[12] = human whole blood, inhibition of LPS induced inflammation, read-out: IC50 IL-13
[13] = human whole blood, inhibition of LPS induced inflammation, read-out: IC50 IL-33
[14] = human whole blood, inhibition of LPS induced inflammation, read-out: IC50 IL-2
[15] = human whole blood, inhibition of LPS induced inflammation, read-out: IC50 IL-5
[16] = human whole blood, inhibition of LPS induced inflammation, read-out: IC50 IL-6
[17] = human whole blood, inhibition of LPS induced inflammation, read-out: IC50 IL-17F
[18] = human whole blood, inhibition of LPS induced inflammation, read-out: IC50 IL-4

Compound	IC50 (TNF-beta; [1]) [µM]	IC50 (IL-12p70; [2]) [µM]	IC50 (IL-13; [3]) [µM]	IC50 (IL-33; [4]) [µM]	Neutrophil adhesion inhibition (Human neutrophils) [%]	IC50 (IL-2; [5]) [µM]	IC50 (IL-5; [6]) [µM]	IC50 (IL-6; [7]) [µM]	IC50 (IL-17F; [8]) [µM]	IC50 (IL-4; [9]) [µM]	IC50 (TNF-beta; [10]) [µM]	IC50 (IL-12p70; [11]) [µM]	IC50 (IL-13; [12]) [µM]	IC50 (IL-33; [13]) [µM]	IC50 (IL-2; [14]) [µM]	IC50 (IL-5; [15]) [µM]	IC50 (IL-6; [16]) [µM]	IC50 (IL-17F; [17]) [µM]	IC50 (IL-4; [18]) [µM]
O=C(Nc1ccccc1-c1nnn[nH]1)c1cc(O)c(C(=O)Nc2ccccc2-c2nnn[nH]2)cc1O [Ic-001aTz2, N1,N4-bis(2-(1H-tetrazol-5-yl)phenyl)-2,5-dihydroxyterephthalamide]	0.41	29.1	0.12	0.23	97.15	9.45	> 100	0.52	0.15	> 100	–	–	–	–	–	–	–	–	–
O=C(O)c1cc(NC(=O)c2cc(O)c(C(=O)O)cc2O)cc(NC(=O)c2cc(O)c(C(=O)O)cc2O)c1 [Ib-010a, 3,5-bis(2,5-dihydroxy-4-carboxybenzoylamino)benzoic acid]	49.3	0.27	> 100	31.3	1.5	2.74	> 100	1.02	> 100	> 100	49.3	0.27	100	31.3	2.74	100	1.02	100	100
O=C(O)c1cc(O)cc(CSCc2cc(O)cc(C(=O)O)c2O)c1O [IVc-058a, 3-((2,5-Dihydroxy-3-carboxyphenyl)methylthiomethyl)-2,5-dihydroxybenzoic acid]	59.3	4.23	55.9	33.9	43.5	3.82	> 100	0.21	86.8	> 100	59.3	4.23	55.9	33.9	3.82	100	0.21	86.8	100
CC(=O)N(Cc1cc(O)c(C(=O)O)cc1O)Cc1cc(O)c(C(=O)O)cc1O [IIIc-057a, N,N-Bis(4-carboxy-2,5-dihydroxyphenylmethyl)acetamide]	1.58	0.73	4.73	2.93	40.04	24.2	> 100	0.19	5.06	> 100	1.58	0.73	4.73	2.93	24.2	100	0.19	5.06	100
